# Marks after values point to notes of the source that are not given here.
# How the values were obtained:
# Male Swiss mice [1] = assay: mouse activity meter test (general locomotor activity); format: in vivo; conditions: 4 mg/kg, ip; positive assay control; 30 minutes after dosing, recorded for 30 minutes
# Protocol: (§1) Thirty minutes later mice were individually placed in transparent plastic cages with 5 cm of sawdust on the floor and 25 marbles grouped in the center of the cage. The number of marbles covered by sawdust (2/3rd or more covered) was counted at the end of the 30 min test. Two days later, general locomotor activity was assessed in the activity meter test in the same animals. Mice were placed in an automated activity meter apparatus 30 minutes after dosing and the number of crossings recorded in 5-minute time bins for 30 minutes. Chlorpromazine (4 mg/kg, i.p.) was included as a positive assay control. […] Locomotor activity was analyzed by one-way ANOVA followed by Dunnett's post-hoc analysis. Effects of clobazam in the marble burying and activity meter tests were examined with the Mann-Whitney U test and unpaired student's t-test, respectively.
# Male Swiss mice [2] = assay: mouse marble burying test; format: in vivo; conditions: 8 mg/kg, ip; positive control; 30 min before 30 min test
# Protocol: as §1
Structure (SMILES),Number of crossings (Mean ± SEM) (Male Swiss mice [1]),Number of marbles buried (Mean ± SEM) (Male Swiss mice [2])
CN(C)CCCN1c2ccccc2Sc2ccc(Cl)cc21 [Chlorpromazine],3.6 ± 0.7^a,–
"CN1C(=O)CC(=O)N(c2ccccc2)c2cc(Cl)ccc21 [Clobazam, clobazam]",–,0.5 ± 0.3^a

# — patent US20260174717A1 (Sumitomo Pharma America, Inc., priority 2022, published 2026)
